Laboratory results: ChEMBL document CHEMBL2016457, “Discovery of potent and orally bioavailable 17β-hydroxysteroid dehydrogenase type 3 inhibitors” (Bioorg Med Chem, 2012)
Calls of active or inactive are those of the source. The rule behind the calls is not given here.

Experiments:
Rattus norvegicus [1] = test: Cmax in Sprague-Dawley rat assessed as 5-(3,5-Dichloro-4-hydroxybenzylidene)-3-(4-methoxyphenyl)-2-thioxo-1,3-oxazolidin-4-one concentration at 10 mg/kg, po; assay type: ADME, organism-based; design: dose 10 mg/kg, route oral; details: in vivo
[2] = target: T1, Estrogen receptor (Homo sapiens) (UniProt P03372); test: Antagonist activity at human ERalpha receptor expressed in human HeLa cells assessed as inhibition of DHT-induced response after 40 hrs by luciferase/beta-galactosidase-based reporter gene assay; assay type: functional, cell-based
T1 sequence (whole entry): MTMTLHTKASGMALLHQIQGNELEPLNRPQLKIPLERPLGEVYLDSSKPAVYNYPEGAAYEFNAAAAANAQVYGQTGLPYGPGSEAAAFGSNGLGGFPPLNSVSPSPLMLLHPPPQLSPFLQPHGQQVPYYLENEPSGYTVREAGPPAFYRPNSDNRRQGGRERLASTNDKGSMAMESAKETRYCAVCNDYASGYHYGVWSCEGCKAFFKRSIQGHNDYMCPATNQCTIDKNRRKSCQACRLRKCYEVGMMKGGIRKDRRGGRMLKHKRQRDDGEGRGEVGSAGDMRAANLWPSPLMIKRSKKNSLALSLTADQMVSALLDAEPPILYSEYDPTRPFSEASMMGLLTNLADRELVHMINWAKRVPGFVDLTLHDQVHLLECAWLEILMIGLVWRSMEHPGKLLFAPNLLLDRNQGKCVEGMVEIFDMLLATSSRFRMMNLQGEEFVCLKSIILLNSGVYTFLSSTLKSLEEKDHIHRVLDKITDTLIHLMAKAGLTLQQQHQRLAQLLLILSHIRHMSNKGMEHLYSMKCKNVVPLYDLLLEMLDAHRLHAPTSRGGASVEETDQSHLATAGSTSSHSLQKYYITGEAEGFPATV

[3] = target: T2, Androgen receptor (Homo sapiens) (UniProt P10275); test: Agonist activity at human androgen receptor expressed in human HeLa cells assessed as DHT-induced response after 40 hrs by luciferase/beta-galactosidase-based reporter gene assay; assay type: functional, cell-based
T2 sequence (whole entry): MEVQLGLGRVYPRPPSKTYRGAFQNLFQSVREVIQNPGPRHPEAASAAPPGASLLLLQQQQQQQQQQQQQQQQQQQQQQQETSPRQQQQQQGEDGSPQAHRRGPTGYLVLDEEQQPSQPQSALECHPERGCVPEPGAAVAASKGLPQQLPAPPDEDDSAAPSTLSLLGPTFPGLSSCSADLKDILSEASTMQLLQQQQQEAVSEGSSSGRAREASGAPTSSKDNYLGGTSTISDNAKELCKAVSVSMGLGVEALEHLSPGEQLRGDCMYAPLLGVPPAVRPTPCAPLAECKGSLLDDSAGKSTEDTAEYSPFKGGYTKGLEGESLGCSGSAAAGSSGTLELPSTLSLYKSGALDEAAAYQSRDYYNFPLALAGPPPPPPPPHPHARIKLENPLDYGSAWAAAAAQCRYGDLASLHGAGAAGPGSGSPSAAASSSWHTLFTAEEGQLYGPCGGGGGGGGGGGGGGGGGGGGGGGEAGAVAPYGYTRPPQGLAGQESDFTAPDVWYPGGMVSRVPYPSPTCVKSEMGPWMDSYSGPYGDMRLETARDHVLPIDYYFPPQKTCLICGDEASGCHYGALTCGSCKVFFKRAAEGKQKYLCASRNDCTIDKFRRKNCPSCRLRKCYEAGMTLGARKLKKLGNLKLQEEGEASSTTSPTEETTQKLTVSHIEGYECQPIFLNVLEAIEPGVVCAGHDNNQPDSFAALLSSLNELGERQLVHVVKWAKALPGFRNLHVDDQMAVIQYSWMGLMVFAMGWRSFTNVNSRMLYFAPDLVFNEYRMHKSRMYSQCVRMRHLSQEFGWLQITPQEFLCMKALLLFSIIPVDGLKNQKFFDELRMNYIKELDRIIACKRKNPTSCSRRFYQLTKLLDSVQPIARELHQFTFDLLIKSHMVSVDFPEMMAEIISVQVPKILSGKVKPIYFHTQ

Rattus norvegicus [4] = test: Inhibition of LH-RH agonist leuprorelin-induced testosterone steroidogenesis in Sprague-Dawley rat at 100 mg/kg, po administered 1 hr prior leuprorelin-induction measured after 240 mins by GC/MS analysis relative to control; design: scale not given: the % may be the effect or the level left
Rattus norvegicus [5] = test: Inhibition of LH-RH agonist leuprorelin-induced testosterone steroidogenesis in Sprague-Dawley rat at 100 mg/kg, po administered 1 hr prior leuprorelin-induction measured up to 240 mins by GC/MS analysis relative to CB7630; assay type: functional
Rattus norvegicus [6] = test: Inhibition of LH-RH agonist leuprorelin-induced testosterone steroidogenesis in Sprague-Dawley rat drug administered po 1 hr prior leuprorelin-induction measured up to 240 mins by GC/MS analysis; assay type: functional, organism-based
Rattus norvegicus [7] = test: AUC (0 to 24 hrs) in Sprague-Dawley rat assessed as 5-(3,5-Dichloro-4-hydroxybenzylidene)-3-(4-methoxyphenyl)-2-thioxo-1,3-oxazolidin-4-one concentration at 10 mg/kg, po; assay type: ADME, organism-based, Plasma; design: time < 24 hr, dose 10 mg/kg, route oral; details: in vivo
Rattus norvegicus [8] = test: Oral bioavailability in Sprague-Dawley rat assessed as 5-(3,5-Dichloro-4-hydroxybenzylidene)-3-(4-methoxyphenyl)-2-thioxo-1,3-oxazolidin-4-one concentration at 10 mg/kg; assay type: ADME, organism-based; details: in vivo
[9] = target: T1, Estrogen receptor (Homo sapiens); test: Agonist activity at human Estrogen receptor ERalpha expressed in human HeLa cells assessed as DHT-induced response after 40 hrs by luciferase/beta-galactosidase-based reporter gene assay; assay type: functional, cell-based
Rattus norvegicus [10] = test: Tmax in Sprague-Dawley rat assessed as 5-(3,5-Dichloro-4-hydroxybenzylidene)-3-(4-methoxyphenyl)-2-thioxo-1,3-oxazolidin-4-one concentration at 10 mg/kg, po; assay type: ADME, organism-based; design: dose 10 mg/kg, route oral; details: in vivo
[11] = Tmax in Sprague-Dawley rat at 10 mg/kg, po; assay type: ADME, organism-based; design: dose 10 mg/kg, route oral; details: in vivo
[12] = Oral bioavailability in Sprague-Dawley rat at 10 mg/kg; assay type: ADME, organism-based; details: in vivo
[13] = Cmax in Sprague-Dawley rat at 10 mg/kg, po; assay type: ADME, organism-based; design: dose 10 mg/kg, route oral; details: in vivo
[14] = target: T3, 17-beta-hydroxysteroid dehydrogenase type 3 (Homo sapiens, UniProt P37058)
T3 sequence (P37058 whole entry): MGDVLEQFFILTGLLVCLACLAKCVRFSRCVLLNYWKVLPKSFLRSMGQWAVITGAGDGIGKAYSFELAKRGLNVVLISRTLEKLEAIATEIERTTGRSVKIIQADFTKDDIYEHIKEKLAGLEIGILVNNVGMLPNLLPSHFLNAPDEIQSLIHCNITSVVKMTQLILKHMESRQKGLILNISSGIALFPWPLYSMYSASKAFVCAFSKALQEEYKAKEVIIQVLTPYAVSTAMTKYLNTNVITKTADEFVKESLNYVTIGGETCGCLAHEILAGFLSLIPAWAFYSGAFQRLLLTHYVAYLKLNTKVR
Description: Inhibition of human recombinant 17-beta-HSD3 expressed in human HeLa cells using androstenedione as substrate preincubated for 30 mins prior substrate addition measured after 120 mins by spectrophotometry

[15] = AUC (0 to 24 hrs) in Sprague-Dawley rat at 10 mg/kg, po; assay type: ADME, organism-based; design: time < 24 hr, dose 10 mg/kg, route oral; details: plasma

Cmax (Rattus norvegicus [1]) [ng/mL] | Activity [2] | Activity [3] | AUC (Rattus norvegicus [7]) [ng·h/mL] | F (Rattus norvegicus [8]) [%] | Activity [9] | Tmax (Rattus norvegicus [10]) [h] | Tmax [11] [h] | bioavailability [12] [%] | Cmax [13] [ng/mL] | IC50 [14] [nM] | AUC(0-t) at 24 h [15] [ng·h/mL] | SMILES | Activity (Rattus norvegicus [4]) [%] | fold change (FC) (Rattus norvegicus [5]) | inhibition (Rattus norvegicus [6])
5250 | inactive | inactive | 18800 | 35.1 | inactive | 1 |  |  |  |  |  | COc1ccc(N2C(=O)/C(=C/c3cc(Cl)c(OP(=O)(O)O)c(Cl)c3)OC2=S)cc1 | 10 | 2 | Dose-dependent effect
 | inactive | inactive |  |  | inactive |  | 1 | 5.5 | 400 | 12 | 4000 | COc1ccc(N2C(=O)/C(=C/c3cc(Cl)c(O)c(Cl)c3)OC2=S)cc1 |  |  | 
